Measured values from PubChem BioAssay (NCI).
Where “and” joins values, the source holds several entries; their conditions need not be identical. Equal entries are not always repeated.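 Compound exposure: 48 hours, 5 concentrations, 96-well plates. GI50 marks 50% less growth. TGI denotes the concentration required for complete inhibition of growth.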

system: ACHN renal; assay: growth of human tumour cells (NCI), 48 h

**Q.** Which results are given for `OC[C@H]1C[C@](O)(c2ccc(Cl)cc2)[C@@H](c2ccc(Cl)cc2)O1`?
**A.** GI50: 28 µM; TGI: 97.3 µM

**Q.** `C=COCCCOc1ccccc1` was tested. Which TGI did it give?
**A.** Its TGI is > 100 µM.

**Q.** With `C=C(c1nc2ccc(Cl)cc2[nH]c1=O)C(O)c1ccc(C(O)C(=O)c2nc3ccc(Cl)cc3[nH]c2=O)cc1` (stereo not given) as the molecule, how does the TGI read?
**A.** Its TGI is > 100 µM.

**Q.** How did the GI50 turn out when `O=c1c2sc(=S)n(-c3ccc(F)cc3)c2ncn1Cc1ccc(F)cc1F` was run?
**A.** The GI50 was > 100 µM.

**Q.** What about the TGI of the same molecule?
**A.** The TGI was > 100 µM.

**Q.** Which results are given for `C=CCCCCC/C=C\[C@H](O)C#CC#C/C=C/CO`?
**A.** GI50: > 100 µM; TGI: > 100 µM

**Q.** With `COc1cc(C#CC(=O)OC/C=C/c2ccc3c(c2)OCO3)cc(OC)c1OC` as the molecule, how does the TGI read?
**A.** The TGI was > 100 µM.

**Q.** With `O/N=C/C1C(OCc2ccccc2)C(OCc2ccccc2)C(OCc2ccccc2)CN1Cc1ccccc1` (stereo not given) as the molecule, how does the GI50 read?
**A.** Its GI50 is 15.2 µM and 4.4 µM.

**Q.** And the TGI?
**A.** The TGI was 37.4 µM and > 100 µM.

**Q.** With `O=C1NC(=O)C(c2cnc3ccccn23)=C1c1cn2c3c(cc(F)cc13)CN(C(=O)N1CCCCC1)CC2` as the molecule, how does the GI50 read?
**A.** The GI50 was 1.37 µM.

**Q.** What about the TGI of the same molecule?
**A.** Its TGI is > 72.5 µM.

**Q.** What does the source list for `Clc1nc2ccccc2nc1CI`?
**A.** GI50: 1.78 µM; TGI: 3.27 µM

**Q.** How did the GI50 turn out when `Cn1nc(N)c2cc([C@@H]3Nc4ccc5[nH]ncc5c4[C@H]4C5CCC(C5)[C@@H]34)ccc21` (stereo not given in full) was run?
**A.** The GI50 was 0.593 µM.

**Q.** What about the TGI of the same molecule?
**A.** The TGI was 41.1 µM.

**Q.** Which results are given for `Cn1cc(CO)c2c1C(=O)C=C(N1CC1)C2=O`?
**A.** GI50: < 0.01 µM; TGI: 0.0102 µM

**Q.** Which GI50 does the source give for `CCN(CC)CCCC(CNc1ccnc2cc(Cl)ccc12)c1ccc(Cl)cc1` (stereo not given) here?
**A.** Its GI50 is 1.31 µM and 0.705 µM.

**Q.** What about the TGI of the same molecule?
**A.** Its TGI is 2.89 µM and 2.07 µM.

**Q.** With `[Cl][Hg][c]1cc(Br)cc(Br)c1` as the molecule, how does the GI50 read?
**A.** Its GI50 is 3.83 µM.

**Q.** What about the TGI of the same molecule?
**A.** Its TGI is 14.8 µM.

**Q.** For `COc1ccc(C(C)=O)cc1N1C(=O)C2C(C1=O)C1(c3ccccc3)C(=O)C2(c2ccccc2)C(c2ccc(C)cc2)=C1c1ccc(C)cc1` (stereo not given), which GI50 is on record?
**A.** Its GI50 is > 100 µM.

**Q.** And the TGI?
**A.** Its TGI is > 100 µM.

**Q.** With `O=C1c2cccc(NCCCNCCO)c2C(=O)c2cccc(NCCCNCCO)c21` as the molecule, how does the TGI read?
**A.** The TGI was 5.71 µM and 10.4 µM.

**Q.** What does the source list for `CCN(CC)c1ccc2c(c1)OC(N)=C(C#N)C2c1cc(OC)c2c(c1)OCO2` (stereo not given)?
**A.** GI50: 0.101 µM; TGI: 6.7 µM

**Q.** Which GI50 does the source give for `N#CC(=C1C=CC(=NO)C=C1)c1ccccc1` here?
**A.** The GI50 was 1.14 µM.

**Q.** What about the TGI of the same molecule?
**A.** The TGI was 10.1 µM.

**Q.** With `CCCCCCCCCCCCCC1=NC(C)(C)CN1C(C)C` as the molecule, how does the GI50 read?
**A.** The GI50 was 1.64 µM.

**Q.** What about the TGI of the same molecule?
**A.** The TGI was 2.99 µM.

**Q.** For `CC(C)=CCNc1ncnc2c1ncn2C1OC(CO)C(O)C1O` (stereo not given), which GI50 is on record?
**A.** Its GI50 is 0.987 µM.

**Q.** And the TGI?
**A.** The TGI was > 526 µM.

**Q.** With `COc1ccc(CN2C(=O)/C(=C\C(=O)c3ccc(OCCN4CCCCC4)cc3)c3ccccc32)cc1` as the molecule, how does the GI50 read?
**A.** Its GI50 is 1.69 µM.

**Q.** And the TGI?
**A.** The TGI was 3.05 µM.

system: BT-549 breast; assay: growth of human tumour cells (NCI), 48 h

**Q.** What does the source list for `OC[C@H]1C[C@](O)(c2ccc(Cl)cc2)[C@@H](c2ccc(Cl)cc2)O1`?
**A.** GI50: 16.8 µM; TGI: 34.6 µM

**Q.** Which GI50 does the source give for `C=COCCCOc1ccccc1` here?
**A.** Its GI50 is > 100 µM.

**Q.** What about the TGI of the same molecule?
**A.** Its TGI is > 100 µM.

**Q.** `C=C(c1nc2ccc(Cl)cc2[nH]c1=O)C(O)c1ccc(C(O)C(=O)c2nc3ccc(Cl)cc3[nH]c2=O)cc1` (stereo not given) was tested. Which TGI did it give?
**A.** The TGI was > 100 µM.

**Q.** For `O=c1c2sc(=S)n(-c3ccc(F)cc3)c2ncn1Cc1ccc(F)cc1F`, which GI50 is on record?
**A.** The GI50 was > 100 µM.

**Q.** And the TGI?
**A.** The TGI was > 100 µM.

**Q.** With `C=CCCCCC/C=C\[C@H](O)C#CC#C/C=C/CO` as the molecule, how does the GI50 read?
**A.** Its GI50 is 20.1 µM.

**Q.** And the TGI?
**A.** Its TGI is 54.7 µM.

**Q.** With `COc1cc(C#CC(=O)OC/C=C/c2ccc3c(c2)OCO3)cc(OC)c1OC` as the molecule, how does the TGI read?
**A.** Its TGI is 52.3 µM.

**Q.** `O/N=C/C1C(OCc2ccccc2)C(OCc2ccccc2)C(OCc2ccccc2)CN1Cc1ccccc1` (stereo not given) was tested. Which TGI did it give?
**A.** The TGI was 37.1 µM.

**Q.** Which GI50 does the source give for `O=C1NC(=O)C(c2cnc3ccccn23)=C1c1cn2c3c(cc(F)cc13)CN(C(=O)N1CCCCC1)CC2` here?
**A.** Its GI50 is 14.7 µM.

**Q.** And the TGI?
**A.** Its TGI is 45 µM.

**Q.** Which GI50 does the source give for `Clc1nc2ccccc2nc1CI` here?
**A.** The GI50 was 6.13 µM.

**Q.** What about the TGI of the same molecule?
**A.** The TGI was 18.2 µM.

**Q.** With `Cn1nc(N)c2cc([C@@H]3Nc4ccc5[nH]ncc5c4[C@H]4C5CCC(C5)[C@@H]34)ccc21` (stereo not given in full) as the molecule, how does the GI50 read?
**A.** Its GI50 is 1.01 µM.

**Q.** And the TGI?
**A.** The TGI was 12.3 µM.

**Q.** Which results are given for `Cn1cc(CO)c2c1C(=O)C=C(N1CC1)C2=O`?
**A.** GI50: < 0.0128 µM; TGI: 0.133 µM

**Q.** How did the GI50 turn out when `CCN(CC)CCCC(CNc1ccnc2cc(Cl)ccc12)c1ccc(Cl)cc1` (stereo not given) was run?
**A.** The GI50 was 1.79 µM and 1.75 µM.

**Q.** And the TGI?
**A.** Its TGI is 3.79 µM and 3.38 µM.

**Q.** How did the GI50 turn out when `[Cl][Hg][c]1cc(Br)cc(Br)c1` was run?
**A.** Its GI50 is 1.95 µM.

**Q.** What about the TGI of the same molecule?
**A.** Its TGI is 5.47 µM.

**Q.** Which GI50 does the source give for `COc1ccc(C(C)=O)cc1N1C(=O)C2C(C1=O)C1(c3ccccc3)C(=O)C2(c2ccccc2)C(c2ccc(C)cc2)=C1c1ccc(C)cc1` (stereo not given) here?
**A.** Its GI50 is > 100 µM.

**Q.** And the TGI?
**A.** The TGI was > 100 µM.

**Q.** Which TGI does the source give for `O=C1c2cccc(NCCCNCCO)c2C(=O)c2cccc(NCCCNCCO)c21` here?
**A.** Its TGI is 4.21 µM.

**Q.** Which results are given for `CCN(CC)c1ccc2c(c1)OC(N)=C(C#N)C2c1cc(OC)c2c(c1)OCO2` (stereo not given)?
**A.** GI50: 0.0661 µM; TGI: 0.455 µM

**Q.** What does the source list for `N#CC(=C1C=CC(=NO)C=C1)c1ccccc1`?
**A.** GI50: 2.42 µM; TGI: 11.6 µM

**Q.** What does the source list for `CCCCCCCCCCCCCC1=NC(C)(C)CN1C(C)C`?
**A.** GI50: 2.33 µM; TGI: 6 µM

**Q.** With `CC(C)=CCNc1ncnc2c1ncn2C1OC(CO)C(O)C1O` (stereo not given) as the molecule, how does the GI50 read?
**A.** The GI50 was 0.57 µM.

**Q.** What about the TGI of the same molecule?
**A.** The TGI was 2.8 µM.

**Q.** What does the source list for `COc1ccc(CN2C(=O)/C(=C\C(=O)c3ccc(OCCN4CCCCC4)cc3)c3ccccc32)cc1`?
**A.** GI50: 5.25 µM; TGI: 16.5 µM

system: HOP-92 NSCLC; assay: growth of human tumour cells (NCI), 48 h

**Q.** How did the GI50 turn out when `OC[C@H]1C[C@](O)(c2ccc(Cl)cc2)[C@@H](c2ccc(Cl)cc2)O1` was run?
**A.** Its GI50 is 16.8 µM.

**Q.** What about the TGI of the same molecule?
**A.** Its TGI is 45.6 µM.

**Q.** What does the source list for `C=COCCCOc1ccccc1`?
**A.** GI50: > 100 µM; TGI: > 100 µM

**Q.** `C=C(c1nc2ccc(Cl)cc2[nH]c1=O)C(O)c1ccc(C(O)C(=O)c2nc3ccc(Cl)cc3[nH]c2=O)cc1` (stereo not given) was tested. Which TGI did it give?
**A.** Its TGI is > 100 µM.

**Q.** `O=c1c2sc(=S)n(-c3ccc(F)cc3)c2ncn1Cc1ccc(F)cc1F` was tested. Which GI50 did it give?
**A.** The GI50 was 44.8 µM.

**Q.** What about the TGI of the same molecule?
**A.** The TGI was > 100 µM.

**Q.** Which GI50 does the source give for `C=CCCCCC/C=C\[C@H](O)C#CC#C/C=C/CO` here?
**A.** Its GI50 is 52.8 µM.

**Q.** And the TGI?
**A.** Its TGI is > 100 µM.

**Q.** How did the TGI turn out when `COc1cc(C#CC(=O)OC/C=C/c2ccc3c(c2)OCO3)cc(OC)c1OC` was run?
**A.** Its TGI is 54.5 µM.

**Q.** For `O/N=C/C1C(OCc2ccccc2)C(OCc2ccccc2)C(OCc2ccccc2)CN1Cc1ccccc1` (stereo not given), which GI50 is on record?
**A.** The GI50 was 13.6 µM and 1.99 µM.

**Q.** What about the TGI of the same molecule?
**A.** The TGI was 33.1 µM and 9.16 µM.

**Q.** Which results are given for `O=C1NC(=O)C(c2cnc3ccccn23)=C1c1cn2c3c(cc(F)cc13)CN(C(=O)N1CCCCC1)CC2`?
**A.** GI50: 14.8 µM; TGI: 38.1 µM

**Q.** How did the GI50 turn out when `Clc1nc2ccccc2nc1CI` was run?
**A.** The GI50 was 1.81 µM.

**Q.** What about the TGI of the same molecule?
**A.** Its TGI is 6.82 µM.

**Q.** `Cn1nc(N)c2cc([C@@H]3Nc4ccc5[nH]ncc5c4[C@H]4C5CCC(C5)[C@@H]34)ccc21` (stereo not given in full) was tested. Which GI50 did it give?
**A.** The GI50 was 1.51 µM.

**Q.** What about the TGI of the same molecule?
**A.** The TGI was 17.9 µM.
